From patent publication US9580435B2, “Pyrrolo[2,3-D]pyrimidine derivatives as CB2 receptor agonists” (priority 2013, dated 2017)
Where two headings read alike, the source gives them in different places.

Columns and labels:
human CB2 receptors = biological target: T1, human CB2 receptors (Homo sapiens, UniProt P34972); experiment: functional cAMP assay, CHO cells expressing human CB2 receptors; type: cell-based
T1 construct: expressed in transfected cells; host or cells: CHO cells
Description: (§1) CHO cells expressing human CB1 or CB2 receptors are seeded 17-24 hours prior to the experiment 50.000 cells per well in a black 96 well plate with flat clear bottom (Corning Costar #3904) in DMEM (Invitrogen No. 31331), lx HT supplement, with 10% fetal calf serum and incubated at 5% CO2 and 37° C. in a humidified incubator. The growth medium was exchanged with Krebs Ringer Bicarbonate buffer with 1 mM IBMX and incubated at 30° C. for 30 min. Compounds were added to a final assay volume of 100 μl and incubated for 30 min at 30° C. Using the cAMP-Nano-TRF detection kit the assay (Roche Diagnostics) was stopped by the addition of 50 μl lysis reagent (Tris, NaCl, 1.5% Triton X100, 2.5% NP40, 10% NaN3) and 50 μl detection solutions (20 μM mAb Alexa700-cAMP 1:1, and 48 μM Ruthenium-2-AHA-cAMP) and shaken for 2 h at room temperature. The time-resolved energy transfer is measured by a TRF reader (Evotec Technologies GmbH), equipped with a ND:YAG laser as excitation source. The plate is measured twice with the excitation at 355 nm and at the emission with a delay of 100 ns and a gate of 100 ns, total exposure time 10 s at 730 (bandwidth 30 nm) or 645 nm (bandwidth 75 nm), respectively. The FRET signal is calculated as follows: FRET=T730-Alexa730-P(T645-B645) with P=Ru730-B730/Ru645-B645, where T730 is the test well measured at 730 nM, T645 is the test well measured at 645 nm, B730 and B645 are the buffer controls at 730 nm and 645 nm, respectively. cAMP content is determined from the function of a standard curve spanning from 10 μM to 0.13 nM cAMP.
(§2) EC50 values were determined using Activity Base analysis (ID Business Solution, Limited). The EC50 values for a wide range of cannabinoid agonists generated from this assay were in agreement with the values published in the scientific literature.

human CB1 receptors = biological target: T2, human CB1 receptors (Homo sapiens, UniProt P21554); experiment: functional cAMP assay, CHO cells expressing human CB1 receptors; type: cell-based
T2 construct: expressed in transfected cells; host or cells: CHO cells
T2 sequence (P21554 whole entry): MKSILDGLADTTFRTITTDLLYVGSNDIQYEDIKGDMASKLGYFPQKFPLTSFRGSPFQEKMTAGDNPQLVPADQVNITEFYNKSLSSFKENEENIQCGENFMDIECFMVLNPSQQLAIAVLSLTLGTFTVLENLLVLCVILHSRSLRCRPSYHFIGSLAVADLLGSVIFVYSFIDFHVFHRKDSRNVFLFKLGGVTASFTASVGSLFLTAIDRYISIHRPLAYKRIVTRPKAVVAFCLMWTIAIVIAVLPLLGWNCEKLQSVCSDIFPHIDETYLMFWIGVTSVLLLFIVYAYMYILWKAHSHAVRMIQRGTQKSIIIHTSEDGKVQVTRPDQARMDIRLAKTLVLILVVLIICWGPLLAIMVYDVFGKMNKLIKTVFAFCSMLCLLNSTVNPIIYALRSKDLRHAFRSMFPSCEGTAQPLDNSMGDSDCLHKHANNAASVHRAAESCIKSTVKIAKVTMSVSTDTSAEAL
Description: as §1, §2

[1] = human EC50, functional cAMP assay, CHO cells expressing human CB2, read-out: EC50:CB2

T1 sequence (P34972 whole entry): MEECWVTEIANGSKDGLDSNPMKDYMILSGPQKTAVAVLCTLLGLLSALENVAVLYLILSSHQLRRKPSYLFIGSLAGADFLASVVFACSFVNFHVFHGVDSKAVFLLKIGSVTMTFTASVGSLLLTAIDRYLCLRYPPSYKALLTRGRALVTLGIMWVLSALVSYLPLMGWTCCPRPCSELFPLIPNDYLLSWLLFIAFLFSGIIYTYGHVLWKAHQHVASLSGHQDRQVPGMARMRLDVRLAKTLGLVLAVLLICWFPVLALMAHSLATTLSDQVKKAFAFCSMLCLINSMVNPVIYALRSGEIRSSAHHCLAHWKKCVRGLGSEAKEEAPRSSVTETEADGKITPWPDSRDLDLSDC

Work on `CC(C)(C)c1nc(N2CCC(F)(F)C2)c2ccn(Cc3ccc(F)cc3Cl)c2n1` [Example 2, 2-tert-butyl-7-[(2-chloro-4-fluorophenyl)methyl]-4-(3,3-difluoropyrrolidin-1-yl)pyrrolo[2,3-d]pyrimidine] yielded an EC50 (human CB2 receptors) of 26.5 nM and an EC50 (human CB1 receptors) greater than 10000 nM.

Work on `Cc1nonc1Cn1ccc2c(N3CCC(F)(F)C3)nc(C(C)(C)C)nc21` [Example 9, 3-[[2-tert-butyl-4-(3,3-difluoropyrrolidin-1-yl)pyrrolo[2,3-d]pyrimidin-7-yl]methyl]-4-methyl-1,2,5-oxadiazole] yielded an EC50 (human CB2 receptors) of 9.5 nM and an EC50 (human CB1 receptors) greater than 10000 nM.

For `CC(C)(C)c1nc(N2CCC(O)C2)c2ccn(Cc3ccccc3C(F)(F)F)c2n1` (stereo not drawn) [Example 27, 1-[2-tert-butyl-7-[[2-(trifluoromethyl)phenyl]methyl]pyrrolo[2,3-d]pyrimidin-4-yl]pyrrolidin-3-ol], the EC50 (human CB2 receptors) was 6.9 nM and the EC50 (human CB1 receptors) was greater than 10000 nM.

Work on `CC(C)(C)c1nc(N2CCC(O)C2)c2ccn(Cc3ncccc3Cl)c2n1` (stereo not drawn) [Example 30, 1-[2-tert-butyl-7-[(3-chloropyridin-2-yl)methyl]pyrrolo[2,3-d]pyrimidin-4-yl]pyrrolidin-3-ol] yielded an EC50 (human CB2 receptors) of 8.4 nM and an EC50 (human CB1 receptors) greater than 10000 nM.

With `Cc1nnc(Cn2ccc3c(N4CCC(F)(F)C4)nc(C(C)(C)C)nc32)o1` [Example 10, 2-[[2-tert-butyl-4-(3,3-difluoropyrrolidin-1-yl)pyrrolo[2,3-d]pyrimidin-7-yl]methyl]-5-methyl-1,3,4-oxadiazole] the EC50 (human CB2 receptors) was 29.6 nM and the EC50 (human CB1 receptors) was greater than 10000 nM.

For `CC(C)(C)c1nc(N2CCC(F)(F)C2)c2ccn(Cc3ccccc3S(C)(=O)=O)c2n1` [Example 3, 2-tert-butyl-4-(3,3-difluoropyrrolidin-1-yl)-7-[(2-methylsulfonylphenyl)methyl]pyrrolo[2,3-d]pyrimidine], the EC50 (human CB2 receptors) was 11.6 nM and the EC50 (human CB1 receptors) was greater than 10000 nM.

Molecule `CC(C)(C)c1nc(N2CC3(COC3)C2)c2ccn(Cc3ncccc3Cl)c2n1` [Example 49, 6-[2-tert-butyl-7-[(3-chloropyridin-2-yl)methyl]pyrrolo[2,3-d]pyrimidin-4-yl]-2-oxa-6-azaspiro[3.3]heptane] has an EC50 (human CB2 receptors) of 10.7 nM and an EC50 (human CB1 receptors) of 307 nM.

Work on `Cc1noc(Cn2ccc3c(N4CCC(O)C4)nc(C(C)(C)C)nc32)n1` (stereo not drawn) [Example 31, 1-[2-tert-butyl-7-[(3-methyl-1,2,4-oxadiazol-5-yl)methyl]pyrrolo[2,3-d]pyrimidin-4-yl]pyrrolidin-3-ol] yielded an EC50 (human CB2 receptors; [1]) of 316 nM and an EC50 (human CB1 receptors) greater than 10000 nM.

Molecule `CC(C)(C)c1nc(N2CCC(O)C2)c2ccn(Cc3nnnn3C3CC3)c2n1` (stereo not drawn) [Example 38, 1-[2-tert-butyl-7-[(1-cyclopropyltetrazol-5-yl)methyl]pyrrolo[2,3-d]pyrimidin-4-yl]pyrrolidin-3-ol] has an EC50 (human CB2 receptors; [1]) of 173 nM and an EC50 (human CB1 receptors) greater than 10000 nM.

Molecule `CC(C)(C)c1nc(N2CCC(O)C2)c2ccn(Cc3ccc(F)cc3Cl)c2n1` (stereo not drawn) [Example 25, 1-[2-tert-butyl-7-[(2-chloro-4-fluorophenyl)methyl]pyrrolo[2,3-d]pyrimidin-4-yl]pyrrolidin-3-ol] has an EC50 (human CB2 receptors) of 10.2 nM and an EC50 (human CB1 receptors) of 895 nM.

`Cc1nnc(Cn2ccc3c(N4CC5(COC5)C4)nc(C(C)(C)C)nc32)o1` [Example 23, 6-[2-tert-butyl-7-[(5-methyl-1,3,4-oxadiazol-2-yl)methyl]pyrrolo[2,3-d]pyrimidin-4-yl]-2-oxa-6-azaspiro[3.3]heptane] gave an EC50 (human CB2 receptors; [1]) of 468 nM and an EC50 (human CB1 receptors) greater than 10000 nM.

`CC(C)(C)c1nc(N2CC[C@H](O)C2)c2ccn(Cc3ccccc3C(F)(F)F)c2n1` [Example 44, (3S)-1-[2-tert-butyl-7-[[2-(trifluoromethyl)phenyl]methyl]pyrrolo[2,3-d]pyrimidin-4-yl]pyrrolidin-3-ol] was tested, and the EC50 (human CB2 receptors) was 3.3 nM and the EC50 (human CB1 receptors) was greater than 10000 nM.

Molecule `Cc1nnc(Cn2ccc3c(N4CCC(O)C4)nc(C(C)(C)C)nc32)o1` (stereo not drawn) [Example 33, 1-[2-tert-butyl-7-[(5-methyl-1,3,4-oxadiazol-2-yl)methyl]pyrrolo[2,3-d]pyrimidin-4-yl]pyrrolidin-3-ol] has an EC50 (human CB2 receptors; [1]) of 350 nM and an EC50 (human CB1 receptors) greater than 10000 nM.

Work on `CC(C)(C)c1nc(N2CC3(COC3)C2)c2ccn(Cc3cccc(Cl)c3Cl)c2n1` [Example 21, 6-[2-tert-butyl-7-[(2,3-dichlorophenyl)methyl]pyrrolo[2,3-d]pyrimidin-4-yl]-2-oxa-6-azaspiro[3.3]heptane] yielded an EC50 (human CB2 receptors) of 91.4 nM and an EC50 (human CB1 receptors) greater than 10000 nM.

With `Cn1nnnc1Cn1ccc2c(N3CCC(F)(F)C3)nc(C(C)(C)C)nc21` [Example 12, 2-tert-butyl-4-(3,3-difluoropyrrolidin-1-yl)-7-[(1-methyltetrazol-5-yl)methyl]pyrrolo[2,3-d]pyrimidine] the EC50 (human CB2 receptors) was 14 nM and the EC50 (human CB1 receptors) was greater than 10000 nM.

For `CC(C)(C)c1nc(N2CC3(COC3)C2)c2ccn(Cc3cccnc3Cl)c2n1` [Example 20, 6-[2-tert-butyl-7-[(2-chloropyridin-3-yl)methyl]pyrrolo[2,3-d]pyrimidin-4-yl]-2-oxa-6-azaspiro[3.3]heptane], the EC50 (human CB2 receptors) was 24.2 nM and the EC50 (human CB1 receptors) was greater than 10000 nM.

`CC(C)(C)c1nc(N2CCC(F)(F)C2)c2ccn(Cc3c[nH]nc3C(F)(F)F)c2n1` [Example 41, 2-tert-butyl-4-(3,3-difluoropyrrolidin-1-yl)-7-[[3-(trifluoromethyl)-1H-pyrazol-4-yl]methyl]pyrrolo[2,3-d]pyrimidine] showed an EC50 (human CB2 receptors) of 13.5 nM and an EC50 (human CB1 receptors) of 1840 nM.

Molecule `CC(C)(C)c1nc(N2CCC(O)C2)c2ccn(Cc3c[nH]nc3C(F)(F)F)c2n1` (stereo not drawn) [Example 40, 1-[2-tert-butyl-7-[[3-(trifluoromethyl)-1H-pyrazol-4-yl]methyl]pyrrolo[2,3-d]pyrimidin-4-yl]pyrrolidin-3-ol] has an EC50 (human CB2 receptors) of 35.6 nM and an EC50 (human CB1 receptors) greater than 10000 nM.

With `Cc1nonc1Cn1ccc2c(N3CCC(O)C3)nc(C(C)(C)C)nc21` (stereo not drawn) [Example 32, 1-[2-tert-butyl-7-[(4-methyl-1,2,5-oxadiazol-3-yl)methyl]pyrrolo[2,3-d]pyrimidin-4-yl]pyrrolidin-3-ol] the EC50 (human CB2 receptors) was 18.9 nM and the EC50 (human CB1 receptors) was greater than 10000 nM.

Molecule `CC(C)(C)c1nc(N2CC3(COC3)C2)c2ccn([C@@H]3CCOC3)c2n1` [Example 17, 6-[2-tert-butyl-7-[(3R)-oxolan-3-yl]pyrrolo[2,3-d]pyrimidin-4-yl]-2-oxa-6-azaspiro[3.3]heptane] has an EC50 (human CB2 receptors) of 61.8 nM and an EC50 (human CB1 receptors) greater than 10000 nM.

For `Cc1nnc(Cn2ccc3c(N4CCC(F)(F)C4)nc(C(C)(C)C)nc32)n1C` [Example 11, 2-tert-butyl-4-(3,3-difluoropyrrolidin-1-yl)-7-[(4,5-dimethyl-1,2,4-triazol-3-yl)methyl]pyrrolo[2,3-d]pyrimidine], the EC50 (human CB2 receptors) was 30.8 nM and the EC50 (human CB1 receptors) was greater than 10000 nM.

For `Cc1nonc1Cn1ccc2c(N3CC4(COC4)C3)nc(C(C)(C)C)nc21` [Example 22, 6-[2-tert-butyl-7-[(4-methyl-1,2,5-oxadiazol-3-yl)methyl]pyrrolo[2,3-d]pyrimidin-4-yl]-2-oxa-6-azaspiro[3.3]heptane], the EC50 (human CB2 receptors) was 48.4 nM and the EC50 (human CB1 receptors) was greater than 10000 nM.

For `CC(C)(C)c1nc(N2CCC(F)(F)C2)c2ccn(Cc3cccnc3Cl)c2n1` [Example 6, 2-tert-butyl-7-[(2-chloropyridin-3-yl)methyl]-4-(3,3-difluoropyrrolidin-1-yl)pyrrolo[2,3-d]pyrimidine], the EC50 (human CB2 receptors) was 12 nM and the EC50 (human CB1 receptors) was greater than 10000 nM.

Work on `CC(C)(C)c1nc(N2CC[C@H](O)C2)c2ccn(Cc3cccnc3Cl)c2n1` [Example 46, (3S)-1-[2-tert-butyl-7-[(2-chloropyridin-3-yl)methyl]pyrrolo[2,3-d]pyrimidin-4-yl]pyrrolidin-3-ol] yielded an EC50 (human CB2 receptors) of 5.1 nM and an EC50 (human CB1 receptors) greater than 10000 nM.
